Key:
[1] = tested on: SMN2 minigene mRNA (SMN2-A minigene) in HEK293H cells; test: SMN2 minigene mRNA splicing RT-qPCR assay in cultured cells; type: cell-based, human; details: Homo sapiens, HEK293-H; concentration increasing full length SMN2 mRNA 1.5-fold relative to vehicle-treated cells; HEK293H cells with SMN2-A minigene, 24 hours, 7-point concentration data; read-out: EC1.5x for production of full length SMN2 mRNA
Method in brief: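 EC1.5× = concentration raising full-length SMN2 minigene mRNA 1.5-fold over vehicle, from 7-point curves in duplicate. Stably transfected HEK293H cells exposed 24 h at 37 °C; lysates assayed by multiplex RT-qPCR, minigene FL signal normalized to GAPDH via modified ΔΔCt.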

[2] = tested on: Smn protein in SMA patient fibroblast cells (GM03813); test: Smn protein assay in cultured cells (SMN HTRF); type: cell-based, human; details: SMA patient fibroblast cells, 48 hours; for EC1.5x for Smn protein expression: 7-point concentration curve, SMN HTRF, concentration producing 1.5 times Smn protein vs DMSO vehicle control; for maximum fold (Fold) increase of Smn protein: 7-point concentration data, fold relative to vehicle control
Method in brief: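 Smn protein quantified by HTRF with anti-SMN d2/kryptate pair, 665/620 nm ratio blank-corrected, in RIPA lysates of GM03813 fibroblasts after 48 h compound exposure (7 concentrations, 3.16-fold steps, triplicates). Values: concentration producing 1.5× vehicle Smn level, and maximal fold increase.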

| SMILES | EC (1.5-fold increase) [1] [µM] | melting point [°C] | EC1.5x for Smn protein expression [2] | maximum fold (Fold) increase of Smn protein [2] |
| --- | --- | --- | --- | --- |
| CCc1cc(-c2cc(=O)n3cc(N4CCN(CCO)[C@@H](C)C4)ccc3n2)cn2cc(C)nc12 [Compound 651, 2-(8-ethyl-2-methylimidazo[1,2-a]pyridin-6-yl)-7-[(3S)-4-(2-hydroxyethyl)-3-methylpiperazin-1-yl]-4H-pyrido[1,2-a]pyrimidin-4-one] | < 0.1 | 220 to 223 | **** (an EC1.5x≤0.3 μM is indicated by four stars (****)) | ***** (a fold increase >1.65 is indicated by five stars (*****)) |
| CCc1nc(C)cn2nc(-c3cc(=O)n4cc(C5CCN(C)CC5)ncc4n3)cc12 [Compound 654, 2-(4-ethyl-6-methylpyrazolo[1,5-a]pyrazin-2-yl)-7-(1-methylpiperidin-4-yl)-4H-pyrazino[1,2-a]pyrimidin-4-one] | < 0.1 | 261 to 263 | **** (an EC1.5x≤0.3 μM is indicated by four stars (****)) | ***** (a fold increase >1.65 is indicated by five stars (*****)) |
| CCc1nc(C)cn2nc(-c3cc(=O)n4cc(C5CCN(CC)CC5)ncc4n3)cc12 [Compound 655, 2-(4-ethyl-6-methylpyrazolo[1,5-a]pyrazin-2-yl)-7-(1-ethylpiperidin-4-yl)-4H-pyrazino[1,2-a]pyrimidin-4-one] | < 0.1 | 273 to 275 | **** (an EC1.5x≤0.3 μM is indicated by four stars (****)) | **** (a fold increase between >1.5 and ≤1.65 is indicated by four stars (****)) |
| CCc1nc(C)cn2nc(-c3cc(=O)n4cc(C5CCNCC5)ccc4n3)cc12 [Compound 656, 2-(4-ethyl-6-methylpyrazolo[1,5-a]pyrazin-2-yl)-7-(piperidin-4-yl)-4H-pyrido[1,2-a]pyrimidin-4-one] | < 0.1 | 236 to 238 | **** (an EC1.5x≤0.3 μM is indicated by four stars (****)) | **** (a fold increase between >1.5 and ≤1.65 is indicated by four stars (****)) |
| CCc1nc(C)cn2nc(-c3cc(=O)n4cc(C5CCN(C)CC5)ccc4n3)cc12 [Compound 657, 2-(4-ethyl-6-methylpyrazolo[1,5-a]pyrazin-2-yl)-7-(1-methylpiperidin-4-yl)-4H-pyrido[1,2-a]pyrimidin-4-one] | < 0.1 | 190 to 192 | **** (an EC1.5x≤0.3 μM is indicated by four stars (****)) | ***** (a fold increase >1.65 is indicated by five stars (*****)) |
| CCc1nc(C)cn2nc(-c3cc(=O)n4cc(C5CCN(CC)CC5)ccc4n3)cc12 [Compound 658, 2-(4-ethyl-6-methylpyrazolo[1,5-a]pyrazin-2-yl)-7-(1-ethylpiperidin-4-yl)-4H-pyrido[1,2-a]pyrimidin-4-one] | < 0.1 | 194 to 196 | **** (an EC1.5x≤0.3 μM is indicated by four stars (****)) | ***** (a fold increase >1.65 is indicated by five stars (*****)) |
| CCc1nc(C)cn2nc(-c3cc(=O)n4cc(C5CCN(CCO)CC5)ccc4n3)cc12 [Compound 659, 2-(4-ethyl-6-methylpyrazolo[1,5-a]pyrazin-2-yl)-7-[1-(2-hydroxyethyl)piperidin-4-yl]-4H-pyrido[1,2-a]pyrimidin-4-one] | < 0.1 | 207 to 209 | **** (an EC1.5x≤0.3 μM is indicated by four stars (****)) | ***** (a fold increase >1.65 is indicated by five stars (*****)) |
| CCCN1CCC(c2ccc3nc(-c4cc5c(CC)nc(C)cn5n4)cc(=O)n3c2)CC1 [Compound 660, 2-(4-ethyl-6-methylpyrazolo[1,5-a]pyrazin-2-yl)-7-(1-propylpiperidin-4-yl)-4H-pyrido[1,2-a]pyrimidin-4-one] | < 0.1 | 203 to 204 | **** (an EC1.5x≤0.3 μM is indicated by four stars (****)) | **** (a fold increase between >1.5 and ≤1.65 is indicated by four stars (****)) |
| CCc1nc(C)cn2nc(-c3cc(=O)n4cc(N5CCN[C@H](C)C5)ccc4n3)cc12 [Compound 661, 2-(4-ethyl-6-methylpyrazolo[1,5-a]pyrazin-2-yl)-7-[(3R)-3-methylpiperazin-1-yl]-4H-pyrido[1,2-a]pyrimidin-4-one] | < 0.1 | 185 to 188 | **** (an EC1.5x≤0.3 μM is indicated by four stars (****)) | ***** (a fold increase >1.65 is indicated by five stars (*****)) |
| Cc1cn2nc(-c3cc(=O)n4cc(C5CCN(CCCF)CC5)ccc4n3)cc2c(C)n1 [Compound 663, 2-(4,6-dimethylpyrazolo[1,5-a]pyrazin-2-yl)-7-[1-(3-fluoropropyl)piperidin-4-yl]-4H-pyrido[1,2-a]pyrimidin-4-one] | < 0.1 | 186 to 188 | **** (an EC1.5x≤0.3 μM is indicated by four stars (****)) | ***** (a fold increase >1.65 is indicated by five stars (*****)) |
| CCc1nc(C)cn2nc(-c3cc(=O)n4cc(N5CCN(CCF)CC5)ccc4n3)cc12 [Compound 664, 2-(4-ethyl-6-methylpyrazolo[1,5-a]pyrazin-2-yl)-7-[4-(2-fluoroethyl)piperazin-1-yl]-4H-pyrido[1,2-a]pyrimidin-4-one] | 0.3 to 1 | 245 to 247 | *** (an EC1.5× between >0.3 μM and ≤1 μM is indicated by three stars (***)) | ***** (a fold increase >1.65 is indicated by five stars (*****)) |
| CCc1nc(C)cn2nc(-c3cc(=O)n4cc(N5CCN(CCCF)CC5)ccc4n3)cc12 [Compound 665, 2-(4-ethyl-6-methylpyrazolo[1,5-a]pyrazin-2-yl)-7-[4-(3-fluoropropyl)piperazin-1-yl]-4H-pyrido[1,2-a]pyrimidin-4-one] | 0.1 to 0.3 | 240 to 242 | **** (an EC1.5x≤0.3 μM is indicated by four stars (****)) | ***** (a fold increase >1.65 is indicated by five stars (*****)) |
| CCc1nc(C)cn2nc(-c3cc(=O)n4cc(N5CCN(CCF)[C@H](C)C5)ccc4n3)cc12 [Compound 666, 2-(4-ethyl-6-methylpyrazolo[1,5-a]pyrazin-2-yl)-7-[(3R)-4-(2-fluoroethyl)-3-methylpiperazin-1-yl]-4H-pyrido[1,2-a]pyrimidin-4-one] | 0.1 to 0.3 | 255 to 257 | *** (an EC1.5× between >0.3 μM and ≤1 μM is indicated by three stars (***)) | ***** (a fold increase >1.65 is indicated by five stars (*****)) |
